Experimental data published in ChEMBL document CHEMBL1949541, “Discovery of 7-arylsulfonyl-1,2,3,4, 4a,9a-hexahydro-benzo[4,5]furo[2,3-c]pyridines: identification of a potent and selective 5-HT₆ receptor antagonist showing activity in rat social recognition test” (Bioorg Med Chem Lett, 2012).
Values belong to the compound of their own block, whether it stands above or below them.

What was measured:
[1] = Half life in rat liver microsomes; assay type: ADME, Microsome
[2] = Half life in dog liver microsomes; assay type: ADME, Canis lupus familiaris, Microsome
[3] = (§1) Oral bioavailability in rat; assay type: ADME, organism-based; settings: in vivo
[4] = target: T1, 5-hydroxytryptamine receptor 6 (Homo sapiens, UniProt P50406); experiment: Displacement of [3H]LSD from human recombinant 5HT6 receptor
T1 sequence (P50406 whole entry): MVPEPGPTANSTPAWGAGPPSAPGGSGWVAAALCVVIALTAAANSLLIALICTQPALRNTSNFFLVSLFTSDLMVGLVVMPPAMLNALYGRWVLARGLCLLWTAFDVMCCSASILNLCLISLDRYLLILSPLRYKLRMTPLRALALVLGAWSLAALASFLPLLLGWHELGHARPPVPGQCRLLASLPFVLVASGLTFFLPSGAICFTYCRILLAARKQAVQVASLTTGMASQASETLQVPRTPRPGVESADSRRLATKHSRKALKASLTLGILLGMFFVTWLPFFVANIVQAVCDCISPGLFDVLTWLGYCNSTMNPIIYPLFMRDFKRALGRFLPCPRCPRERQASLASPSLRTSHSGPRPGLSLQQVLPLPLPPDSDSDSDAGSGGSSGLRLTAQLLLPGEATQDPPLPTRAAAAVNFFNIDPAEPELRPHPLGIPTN

[5] = Half life in human liver microsomes; assay type: ADME, Microsome
[6] = Half life in mouse liver microsomes; assay type: ADME, Microsome
[7] = Aqueous solubility at pH 2; assay type: physicochemical; settings: buffer
[8] = target: 5-hydroxytryptamine receptor 6 (Rattus norvegicus, UniProt P31388); experiment: Displacement of [3H]LSD from rat recombinant 5HT6 receptor
Sequence of 5-hydroxytryptamine receptor 6 (Rattus norvegicus, UniProt P31388) (P31388 whole entry): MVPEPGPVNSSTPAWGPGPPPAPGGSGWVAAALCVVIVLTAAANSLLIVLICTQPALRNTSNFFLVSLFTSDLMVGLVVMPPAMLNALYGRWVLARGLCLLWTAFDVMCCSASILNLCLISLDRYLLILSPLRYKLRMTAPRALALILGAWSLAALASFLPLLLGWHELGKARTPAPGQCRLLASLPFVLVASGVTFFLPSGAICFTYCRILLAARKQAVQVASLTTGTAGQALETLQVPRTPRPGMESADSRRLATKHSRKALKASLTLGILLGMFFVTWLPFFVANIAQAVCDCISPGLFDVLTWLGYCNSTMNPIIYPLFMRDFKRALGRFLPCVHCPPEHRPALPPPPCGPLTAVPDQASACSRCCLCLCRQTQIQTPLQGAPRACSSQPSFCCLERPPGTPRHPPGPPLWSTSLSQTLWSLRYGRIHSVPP

[9] = target: T2, Sodium-dependent dopamine transporter (Homo sapiens, UniProt Q01959); experiment: Inhibition of DA transporter
T2 sequence (Q01959 whole entry): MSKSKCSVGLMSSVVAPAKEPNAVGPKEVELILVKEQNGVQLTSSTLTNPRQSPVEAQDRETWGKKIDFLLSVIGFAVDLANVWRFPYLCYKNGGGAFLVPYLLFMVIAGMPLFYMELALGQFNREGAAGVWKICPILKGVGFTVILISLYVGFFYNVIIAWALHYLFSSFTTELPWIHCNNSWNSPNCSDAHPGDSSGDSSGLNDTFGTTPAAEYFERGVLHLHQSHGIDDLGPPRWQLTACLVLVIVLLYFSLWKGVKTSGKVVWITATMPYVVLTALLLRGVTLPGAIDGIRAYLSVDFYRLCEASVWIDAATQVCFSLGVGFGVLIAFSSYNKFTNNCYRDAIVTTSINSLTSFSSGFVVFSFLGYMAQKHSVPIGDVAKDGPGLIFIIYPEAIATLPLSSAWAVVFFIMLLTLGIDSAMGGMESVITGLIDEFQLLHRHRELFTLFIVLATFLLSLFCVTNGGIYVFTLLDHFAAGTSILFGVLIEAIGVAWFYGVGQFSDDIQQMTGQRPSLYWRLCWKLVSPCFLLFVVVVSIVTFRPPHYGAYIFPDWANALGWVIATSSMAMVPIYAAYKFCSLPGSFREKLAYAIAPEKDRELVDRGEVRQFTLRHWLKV

[10] = target: T3, 5-hydroxytryptamine receptor 2A (Homo sapiens, UniProt P28223); experiment: Inhibition of human 5HT2A
T3 sequence (P28223 whole entry): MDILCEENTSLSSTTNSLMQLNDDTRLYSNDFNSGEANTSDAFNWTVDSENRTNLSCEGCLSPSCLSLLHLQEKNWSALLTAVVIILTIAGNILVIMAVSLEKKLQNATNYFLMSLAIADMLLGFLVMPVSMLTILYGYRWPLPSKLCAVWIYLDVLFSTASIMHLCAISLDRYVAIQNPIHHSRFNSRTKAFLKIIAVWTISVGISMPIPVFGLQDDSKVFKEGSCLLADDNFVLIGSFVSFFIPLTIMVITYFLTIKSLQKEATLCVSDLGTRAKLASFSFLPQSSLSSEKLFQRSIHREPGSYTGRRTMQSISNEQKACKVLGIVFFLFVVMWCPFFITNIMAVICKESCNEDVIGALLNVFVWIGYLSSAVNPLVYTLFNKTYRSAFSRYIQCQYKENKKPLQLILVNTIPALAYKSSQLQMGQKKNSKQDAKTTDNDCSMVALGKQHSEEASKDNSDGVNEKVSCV

[11] = Oral bioavailability in rat at 5 mg/kg at 24 hrs; assay type: ADME, organism-based; settings: in vivo
[12] = tested on: Rattus norvegicus; experiment: Volume of distribution in rat at 1 mg/kg, iv; assay type: ADME, organism-based; set-up: dose 1 mg/kg, route intravenous; settings: in vivo
[13] = target: Cytochrome P450 1A2 (Homo sapiens, UniProt P05177); experiment: Inhibition of CYP 1A2; assay type: ADME
Sequence of Cytochrome P450 1A2 (P05177 whole entry): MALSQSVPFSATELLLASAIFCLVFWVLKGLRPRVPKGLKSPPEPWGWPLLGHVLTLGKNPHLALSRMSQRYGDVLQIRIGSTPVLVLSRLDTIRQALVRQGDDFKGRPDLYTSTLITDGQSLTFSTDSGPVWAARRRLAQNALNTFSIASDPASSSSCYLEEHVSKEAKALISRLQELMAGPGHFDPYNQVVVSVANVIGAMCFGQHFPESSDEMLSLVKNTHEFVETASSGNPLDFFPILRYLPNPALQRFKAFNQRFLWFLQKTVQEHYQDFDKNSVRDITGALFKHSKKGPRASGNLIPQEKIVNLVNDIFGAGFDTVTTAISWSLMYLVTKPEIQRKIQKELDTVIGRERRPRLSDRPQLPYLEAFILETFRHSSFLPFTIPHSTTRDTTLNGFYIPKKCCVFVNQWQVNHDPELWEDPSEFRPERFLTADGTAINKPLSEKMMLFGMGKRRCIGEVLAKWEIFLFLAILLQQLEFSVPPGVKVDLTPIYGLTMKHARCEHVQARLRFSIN

[14] = target: Muscarinic acetylcholine receptor M4 (Homo sapiens, UniProt P08173); experiment: Inhibition of M4 receptor
[15] = Apparent permeability from apical to basal side of MDCK2-MDR1; assay type: ADME, cell-based, Canis lupus familiaris, MDCK-II; settings: dog, MDCK-MDR1
[16] = target: Cytochrome P450 3A4 (Homo sapiens, UniProt P08684); experiment: Inhibition of CYP 3A4; assay type: ADME
[17] = tested on: Rattus norvegicus; experiment: Antiamnesic activity in rat assessed as decrease in ratio of investigation duration of familiar juvenile rat at 1 mg/kg, ip administered 120 mins prior to test by social recognition test; assay type: functional; set-up: scale not given: the % may be the effect or the level left; settings: route intraperitoneal
[18] = Aqueous solubility at pH 7.4; assay type: physicochemical; settings: buffer
[19] = target: Cytochrome P450 2C19 (Homo sapiens, UniProt P33261); experiment: Inhibition of CYP 2C19; assay type: ADME
[20] = Inhibition of calcium channel-L type
[21] = target: 5-hydroxytryptamine receptor 2C (Homo sapiens, UniProt P28335); experiment: Inhibition of human 5HT2C
[22] = target: Muscarinic acetylcholine receptor M2 (Homo sapiens, UniProt P08172); experiment: Inhibition of M2 receptor
[23] = tested on: Rattus norvegicus; experiment: Half life in rat at 1 mg/kg, iv; assay type: ADME, organism-based; set-up: dose 1 mg/kg, route intravenous; settings: in vivo
[24] = target: Muscarinic acetylcholine receptor M1 (Homo sapiens, UniProt P11229); experiment: Inhibition of M1 receptor
Sequence of Muscarinic acetylcholine receptor M1 (P11229 whole entry): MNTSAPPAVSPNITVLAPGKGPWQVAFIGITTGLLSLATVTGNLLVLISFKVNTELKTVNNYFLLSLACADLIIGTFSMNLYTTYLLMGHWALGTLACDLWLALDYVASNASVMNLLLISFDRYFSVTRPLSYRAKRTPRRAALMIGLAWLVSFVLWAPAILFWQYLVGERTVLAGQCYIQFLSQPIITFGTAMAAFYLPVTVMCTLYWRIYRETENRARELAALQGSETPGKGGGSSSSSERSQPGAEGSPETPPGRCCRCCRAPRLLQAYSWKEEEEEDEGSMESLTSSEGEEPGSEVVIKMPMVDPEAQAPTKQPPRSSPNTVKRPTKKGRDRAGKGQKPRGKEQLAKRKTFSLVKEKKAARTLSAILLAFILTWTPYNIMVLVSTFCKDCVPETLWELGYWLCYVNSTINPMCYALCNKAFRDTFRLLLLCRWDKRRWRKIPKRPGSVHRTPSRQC

[25] = target: T4, 5-hydroxytryptamine receptor 2B (Homo sapiens, UniProt P41595); experiment: Inhibition of human 5HT2B
T4 sequence (P41595 whole entry): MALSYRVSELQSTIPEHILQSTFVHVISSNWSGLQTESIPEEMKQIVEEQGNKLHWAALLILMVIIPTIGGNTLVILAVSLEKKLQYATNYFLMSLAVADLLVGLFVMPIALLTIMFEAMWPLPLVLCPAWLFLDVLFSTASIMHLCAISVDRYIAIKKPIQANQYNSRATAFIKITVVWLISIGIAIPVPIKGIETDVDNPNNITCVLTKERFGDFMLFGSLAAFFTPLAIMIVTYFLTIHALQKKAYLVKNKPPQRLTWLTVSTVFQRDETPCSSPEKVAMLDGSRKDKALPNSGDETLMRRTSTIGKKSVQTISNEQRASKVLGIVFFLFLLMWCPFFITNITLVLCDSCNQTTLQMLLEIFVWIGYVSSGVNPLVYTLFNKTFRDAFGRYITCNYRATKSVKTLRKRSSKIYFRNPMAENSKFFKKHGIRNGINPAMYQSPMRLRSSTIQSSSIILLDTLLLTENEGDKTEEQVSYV

[26] = tested on: Rattus norvegicus; experiment: Antiamnesic activity in rat assessed as decrease in ratio of investigation duration of familiar juvenile rat at 0.3 mg/kg, ip administered 120 mins prior to test by social recognition test; assay type: functional; set-up: scale not given: the % may be the effect or the level left; settings: route intraperitoneal
[27] = target: Cytochrome P450 2D6 (Homo sapiens, UniProt P10635); experiment: Inhibition of CYP 2D6; assay type: ADME
[28] = Plasma protein binding in human; assay type: ADME, cell-free; settings: read-out: PPB (converted)
[29] = target: T1, 5-hydroxytryptamine receptor 6; experiment: Antagonist activity at human 5HT6 receptor expressed in human astrocytoma cells assessed as inhibition of cAMP production; assay type: functional, cell-based
[30] = target: Cytochrome P450 2C9 (Homo sapiens, UniProt P11712); experiment: Inhibition of CYP 2C9; assay type: ADME
[31] = target: Voltage-gated inwardly rectifying potassium channel KCNH2 (Homo sapiens, UniProt Q12809); experiment: Inhibition of human ERG by patch clamp assay
[32] = tested on: Rattus norvegicus; experiment: Antiamnesic activity in rat assessed as decrease in ratio of investigation duration of familiar juvenile rat at 3 mg/kg, ip administered 120 mins prior to test by social recognition test; assay type: functional; set-up: scale not given: the % may be the effect or the level left; settings: route intraperitoneal
[33] = Plasma protein binding in rat; assay type: ADME, cell-free; settings: read-out: PPB (converted)
[34] = target: T5, Sodium-dependent noradrenaline transporter (Homo sapiens, UniProt P23975); experiment: Inhibition of NA transporter
T5 sequence (P23975 whole entry): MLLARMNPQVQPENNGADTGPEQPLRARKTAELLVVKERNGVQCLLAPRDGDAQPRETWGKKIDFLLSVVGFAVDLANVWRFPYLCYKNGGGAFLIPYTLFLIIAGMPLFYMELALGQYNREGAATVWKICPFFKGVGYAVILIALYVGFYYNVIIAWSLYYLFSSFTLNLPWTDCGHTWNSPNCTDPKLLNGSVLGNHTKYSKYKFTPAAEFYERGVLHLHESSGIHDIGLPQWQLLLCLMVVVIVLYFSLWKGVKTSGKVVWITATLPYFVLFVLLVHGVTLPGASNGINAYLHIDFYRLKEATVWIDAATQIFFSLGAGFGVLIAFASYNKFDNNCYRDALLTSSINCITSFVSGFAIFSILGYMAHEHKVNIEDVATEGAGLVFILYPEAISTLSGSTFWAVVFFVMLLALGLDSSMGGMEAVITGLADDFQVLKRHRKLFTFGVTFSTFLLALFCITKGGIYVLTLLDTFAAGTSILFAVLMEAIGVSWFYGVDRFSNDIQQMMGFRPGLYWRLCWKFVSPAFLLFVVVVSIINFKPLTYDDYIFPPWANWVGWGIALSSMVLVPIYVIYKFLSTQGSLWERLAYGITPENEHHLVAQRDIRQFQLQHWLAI

[35] = Ratio of drug uptake in brain to plasma in rat at 5 mg/kg, po; assay type: ADME, organism-based; set-up: dose 5 mg/kg, route oral; settings: read-out: BPR
[36] = target: Muscarinic acetylcholine receptor M2 (Homo sapiens) (UniProt P08172); settings: 10 uM
Description: Inhibition of M2 receptor at 10 uM

[37] = target: 5-hydroxytryptamine receptor 2C (Homo sapiens) (UniProt P28335); experiment: Inhibition of human 5HT2C at 10 uM
[38] = target: 5-hydroxytryptamine receptor 5A (Homo sapiens) (UniProt P47898); experiment: Inhibition of human 5HT5A at 10 uM
[39] = target: T3, 5-hydroxytryptamine receptor 2A; experiment: Inhibition of human 5HT2A at 10 uM
[40] = target: 5-hydroxytryptamine receptor 3A (Homo sapiens) (UniProt P46098); experiment: Inhibition of human 5HT3 at 10 uM
[41] = target: 5-hydroxytryptamine receptor 1A (Homo sapiens) (UniProt P08908); experiment: Inhibition of human 5HT1A at 10 uM
Sequence of 5-hydroxytryptamine receptor 1A (Homo sapiens) (P08908 whole entry): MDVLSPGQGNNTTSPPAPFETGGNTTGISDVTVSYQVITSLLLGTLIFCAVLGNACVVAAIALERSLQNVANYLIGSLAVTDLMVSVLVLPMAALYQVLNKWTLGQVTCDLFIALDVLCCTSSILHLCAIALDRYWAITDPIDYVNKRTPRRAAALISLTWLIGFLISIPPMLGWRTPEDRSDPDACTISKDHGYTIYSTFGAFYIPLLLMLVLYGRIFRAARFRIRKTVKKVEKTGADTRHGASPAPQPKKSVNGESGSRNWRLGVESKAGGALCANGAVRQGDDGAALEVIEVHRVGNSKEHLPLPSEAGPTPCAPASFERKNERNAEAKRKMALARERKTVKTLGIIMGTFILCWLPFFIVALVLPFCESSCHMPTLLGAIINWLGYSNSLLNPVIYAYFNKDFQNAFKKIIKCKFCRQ

[42] = target: T5, Sodium-dependent noradrenaline transporter; settings: 10 uM
[43] = target: Muscarinic acetylcholine receptor M4 (Homo sapiens) (UniProt P08173); settings: 10 uM
Description: Inhibition of M4 receptor at 10 uM

[44] = target: T2, Sodium-dependent dopamine transporter; settings: 10 uM
[45] = target: 5-hydroxytryptamine receptor 7 (Homo sapiens) (UniProt P34969); experiment: Inhibition of human 5HT7 at 10 uM
[46] = target: Muscarinic acetylcholine receptor M1 (Homo sapiens) (UniProt P11229); settings: 10 uM
Sequence of Muscarinic acetylcholine receptor M1 (Homo sapiens) (P11229 whole entry): as the sequence (P11229 whole entry) above

[47] = target: T4, 5-hydroxytryptamine receptor 2B; experiment: Inhibition of human 5HT2B at 10 uM
[48] = target: 5-hydroxytryptamine receptor 1B (Rattus norvegicus) (UniProt P28564); experiment: Inhibition of rat […] at 10 uM
Sequence of 5-hydroxytryptamine receptor 1B (Rattus norvegicus) (P28564 whole entry): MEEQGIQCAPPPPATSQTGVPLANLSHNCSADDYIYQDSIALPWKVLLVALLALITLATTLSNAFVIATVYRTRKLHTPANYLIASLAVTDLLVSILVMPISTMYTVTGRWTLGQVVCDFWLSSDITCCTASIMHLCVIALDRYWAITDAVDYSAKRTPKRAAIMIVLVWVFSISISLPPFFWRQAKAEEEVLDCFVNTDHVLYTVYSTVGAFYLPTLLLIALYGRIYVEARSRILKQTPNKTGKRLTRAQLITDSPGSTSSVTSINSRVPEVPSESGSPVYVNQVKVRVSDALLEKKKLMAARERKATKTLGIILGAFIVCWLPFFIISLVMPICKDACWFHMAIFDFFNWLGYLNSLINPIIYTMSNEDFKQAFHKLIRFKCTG

[49] = tested on: Rattus norvegicus; experiment: Antiamnesic activity in ip dosed rat assessed as decrease in ratio of investigation duration of familiar juvenile rat administered 120 mins prior to test by social recognition test; assay type: functional, organism-based
[50] = tested on: Rattus norvegicus; experiment: AUC in po dosed rat; assay type: ADME, organism-based, Plasma; settings: in vivo
[51] = tested on: Rattus norvegicus; experiment: as §1; assay type: ADME, organism-based; settings: in vivo

half-life [1]: > 40 min
half-life [2]: > 40 min
bioavailability [3]: 15%
Ki [4]: 83 nM
half-life [5]: > 40 min
half-life [6]: > 40 min
Compound: Cl.O=S(=O)(c1ccccc1)c1ccc2c(c1)O[C@H]1CNCC[C@@H]21 (racemic)

Ki [4]: 385 nM
Compound: O=S(=O)(c1ccc(F)cc1)c1ccc2c(c1)O[C@H]1CNCC[C@@H]21 (racemic)

half-life [1]: > 40 min
solubility [7]: > 130 µg/mL
Ki [8]: 27 nM
IC50 [9]: 6300 nM
Ki [10]: 3700 nM
half-life [2]: > 40 min
bioavailability [11]: 39%
Vd [12]: 4.3 L/kg
IC50 [13]: > 30000 nM
IC50 [14]: 4800 nM
Papp A→B [15]: 2.88 ×10⁻⁶ cm/s
IC50 [16]: > 5900 nM
Ki [4]: 4 nM
solubility [18]: > 130 µg/mL
IC50 [19]: > 22900 nM
IC50 [20]: 3900 nM
Ki [21]: 19000 nM
IC50 [22]: 7900 nM
t1/2 [23]: 150 min
IC50 [24]: 2200 nM
Ki [25]: 6200 nM
IC50 [27]: > 30000 nM
fraction unbound [28]: 0.046
IC50 [29]: 67 nM
half-life [5]: > 40 min
IC50 [30]: > 30000 nM
fraction unbound [33]: 0.027
IC50 [34]: 4400 nM
half-life [6]: > 40 min
Kp [35]: 2.76
Compound: COc1cc(OC(C)C)cc(S(=O)(=O)c2ccc3c(c2)O[C@H]2CNCC[C@@H]32)c1.Cl (single isomer, unassigned; enantiomer 1)
Activity [17]: 21%
Activity [26]: 22%
IC50 [31]: 3300 nM
Activity [32]: 35%

Ki [4]: 68 nM
IC50 [29]: 790 nM
Compound: O=S(=O)(c1cc(F)cc(Cl)c1)c1ccc2c(c1)O[C@H]1CNCC[C@@H]21 (single isomer, unassigned; enantiomer 1)

Ki [4]: 85 nM
IC50 [29]: 281 nM
Compound: COc1cccc(S(=O)(=O)c2ccc3c(c2)O[C@H]2CNCC[C@@H]32)c1 (racemic)

Ki [8]: 156 nM
Ki [4]: 23 nM
IC50 [29]: 306 nM
Compound: CC(C)Oc1cccc(S(=O)(=O)c2ccc3c(c2)O[C@H]2CNCC[C@@H]32)c1 (racemic)

bioavailability [11]: 24%
Vd [12]: 5.7 L/kg
t1/2 [23]: 42 min
Kp [35]: 0.7
Compound: O=S(=O)(c1ccccc1)c1cnc2c(N3CCNCC3)cccc2c1 [INTEPIRDINE]

Ki [4]: 203 nM
Compound: COCCCOc1cccc(S(=O)(=O)c2ccc3c(c2)O[C@H]2CNCC[C@@H]32)c1 (racemic)

half-life [1]: < 5 min
half-life [2]: 10 min
bioavailability [3]: 7%
Ki [4]: 2.9 nM
half-life [5]: > 40 min
half-life [6]: < 5 min
Compound: Cl.O=S(=O)(c1ccccc1)c1ccc2c3c(oc2c1)CNCC3

Ki [4]: 11 nM
IC50 [29]: 63 nM
Compound: O=S(=O)(c1cc(F)cc(Cl)c1)c1ccc2c(c1)O[C@H]1CNCC[C@@H]21 (single isomer, unassigned; enantiomer 2)

Ki [4]: 562 nM
Compound: COCCOc1cccc(S(=O)(=O)c2ccc3c(c2)O[C@H]2CNCC[C@@H]32)c1 (racemic)

Ki [4]: 21 nM
Compound: CC(C)Oc1cccc(S(=O)(=O)c2ccc3c(c2)O[C@H]2CNCC[C@@H]32)c1F (single isomer, unassigned; enantiomer 2)

Ki [4]: 65 nM
Compound: CC(C)Oc1cc(F)cc(S(=O)(=O)c2ccc3c(c2)O[C@H]2CNCC[C@@H]32)c1 (single isomer, unassigned; enantiomer 2)

inhibition [36]: > 50%
inhibition [37]: 71%
inhibition [38]: 6%
inhibition [39]: 83%
inhibition [40]: 25%
inhibition [41]: 19%
inhibition [42]: > 50%
inhibition [43]: > 50%
inhibition [44]: > 50%
inhibition [45]: 6%
inhibition [46]: > 50%
inhibition [47]: 62%
inhibition [48]: 16%
Compound: COc1cc(OC(C)C)cc(S(=O)(=O)c2ccc3c(c2)O[C@H]2CNCC[C@@H]32)c1 (single isomer, unassigned; enantiomer 1)
Activity [49]: Dose-dependent effect

Ki [4]: 56 nM
Compound: CC(C)Oc1cccc(S(=O)(=O)c2ccc3c(c2)O[C@H]2CNCC[C@@H]32)c1F (single isomer, unassigned; enantiomer 1)

AUC [50]: 434 ng·h/mL
F [51]: 2%
Ki [4]: 85 nM
Compound: Cl.O=S(=O)(c1cccc(F)c1)c1ccc2c(c1)O[C@H]1CNCC[C@@H]21 (single isomer, unassigned; enantiomer 2)
